Key:
Type in all cases: biochemical
HSV polymerase = HSV polymerase (Human herpesvirus 1, UniProt P04293); assay: HSV polymerase assay (procedure similar to the HCMV polymerase SPA); conditions: Table 1, read-out: Antiviral Selective Polymerase IC50 Values, HSV
Method: (§1) The HCMV polymerase assay is performed using a scintillation proximity assay (SPA) as described in several references, such as N. D. Cook, et al., Pharmaceutical Manufacturing International, pages 49-53 (1992); K. Takeuchi, Laboratory Practice, September issue (1992); U.S. Pat. No. 4,568,649 (1986); which are incorporated by reference herein. Reactions are performed in 96-well plates. The assay is conducted in 100 μl volume with 5.4 mM HEPES (pH 7.5), 11.7 mM KCl, 4.5 mM MgCl2, 0.36 mg/ml BSA, and 90 nM ^3 H-dTTP. Assays are run with and without CHAPS, (3-[(3-Cholamidopropyl)-dimethylammonio]-1-propane-sulfonate) at a final concentration of 2 mM. HCMV polymerase is diluted in enzyme dilution buffer containing 50% glycerol, 250 mM NaCl, 10 mM HEPES (pH 7.5), 100 μg/ml BSA, and 0.01% sodium azide. The HCMV polymerase, which is expressed in recombinant baculovirus-infected SF-9 cells and purified according to literature procedures, is added at 10% (or 10 μl) of the final reaction volume, i.e., 100 μl. Compounds are diluted in 50% DMSO and 10 μl are added to each well. Control wells contain an equivalent concentration of DMSO. Unless noted otherwise, reactions are initiated via the addition of 6 nM biotinylated poly(dA)-oligo(dT) template/primer to reaction mixtures containing the enzyme, substrate, and compounds of interest. Plates are incubated in a 25° C. or 37° C. H2 O bath and terminated via the addition of 40 μl/reaction of 0.5 M EDTA (pH 8) per well. Reactions are terminated within the time-frame during which substrate incorporation is linear and varied depending upon the enzyme and conditions used, i.e., 30 min. for HCMV polymerase. Ten μl of streptavidin-SPA beads (20 mg/ml in PBS/10% glycerol) are added following termination of the reaction. Plates are incubated 10 min. at 37° C., then equilibrated to room temperature, and counted on a Packard Topcount. Linear regressions are performed and IC50 's are calculated using computer software.
(§2) A modified version of the above HCMV polymerase assay is performed as described above, but with the following changes: Compounds are diluted in 100% DMSO until final dilution into assay buffer. In the previous assay, compounds are diluted in 50% DMSO. 4.5 mM dithiotherotol (DTT) is added to the polymerase buffer. […] Other viral polymerase assays are performed using procedures similar to those described above.

HCMV polymerase = biological target: T1, HCMV polymerase (Human cytomegalovirus, UniProt P08546); assay: HCMV polymerase scintillation proximity assay (SPA), modified version; conditions: CMV polymerase; Table 1; modified assay with 4.5 mM DTT, compounds in 100% DMSO; read-out: Antiviral Selective Polymerase IC50 Values, CMV
T1 construct: made in house; host or cells: recombinant baculovirus-infected SF-9 cells
Method in brief: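 Recombinant polymerase (baculovirus/SF-9) in 5.4 mM HEPES pH 7.5, 11.7 mM KCl, 4.5 mM MgCl2, 0.36 mg/ml BSA, 90 nM 3H-dTTP, ±2 mM CHAPS; started with 6 nM biotinylated poly(dA)-oligo(dT), 25° C or 37° C, EDTA-stopped in linear range (30 min for HCMV). Streptavidin-SPA read; IC50 by linear regression. Modified version: 100% DMSO compound dilution, 4.5 mM DTT added.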

VZV polymerase = VZV polymerase (Varicella-zoster virus, UniProt P09252); assay: VZV polymerase assay (procedure similar to the HCMV polymerase SPA); conditions: Table 1, read-out: Antiviral Selective Polymerase IC50 Values, VZV
Method: as §1, §2

Chain of VZV polymerase (P09252 whole entry): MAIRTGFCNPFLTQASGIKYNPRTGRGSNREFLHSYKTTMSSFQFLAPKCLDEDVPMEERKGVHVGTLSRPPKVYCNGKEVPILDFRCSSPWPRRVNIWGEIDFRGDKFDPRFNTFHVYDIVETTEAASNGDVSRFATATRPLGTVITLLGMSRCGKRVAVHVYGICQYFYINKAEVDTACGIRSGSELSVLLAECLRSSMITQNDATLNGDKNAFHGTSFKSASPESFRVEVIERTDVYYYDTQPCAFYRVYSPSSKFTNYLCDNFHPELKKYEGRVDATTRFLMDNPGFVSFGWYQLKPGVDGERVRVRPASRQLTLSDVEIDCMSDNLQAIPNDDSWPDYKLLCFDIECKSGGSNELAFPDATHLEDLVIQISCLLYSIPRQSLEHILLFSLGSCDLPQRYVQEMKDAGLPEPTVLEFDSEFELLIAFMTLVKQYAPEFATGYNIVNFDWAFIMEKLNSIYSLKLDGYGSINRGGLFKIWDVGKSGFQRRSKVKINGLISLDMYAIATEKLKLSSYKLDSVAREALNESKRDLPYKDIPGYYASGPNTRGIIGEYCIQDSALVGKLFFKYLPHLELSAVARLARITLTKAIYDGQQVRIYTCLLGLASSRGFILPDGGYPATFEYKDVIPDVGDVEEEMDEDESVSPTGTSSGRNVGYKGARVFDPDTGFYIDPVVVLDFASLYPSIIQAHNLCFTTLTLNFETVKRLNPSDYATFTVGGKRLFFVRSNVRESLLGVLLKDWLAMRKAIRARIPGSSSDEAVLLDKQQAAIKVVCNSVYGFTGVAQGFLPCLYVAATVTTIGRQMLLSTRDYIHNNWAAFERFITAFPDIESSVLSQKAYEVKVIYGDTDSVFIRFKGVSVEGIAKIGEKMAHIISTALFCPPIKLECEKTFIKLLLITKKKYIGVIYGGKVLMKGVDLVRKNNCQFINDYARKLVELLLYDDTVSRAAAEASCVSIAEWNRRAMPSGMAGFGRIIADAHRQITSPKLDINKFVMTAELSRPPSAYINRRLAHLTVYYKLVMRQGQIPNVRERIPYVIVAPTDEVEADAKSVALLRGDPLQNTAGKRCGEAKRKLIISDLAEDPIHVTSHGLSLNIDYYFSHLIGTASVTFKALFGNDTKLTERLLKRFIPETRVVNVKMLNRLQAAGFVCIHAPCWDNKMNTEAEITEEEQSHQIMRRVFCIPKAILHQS
T1 sequence (P08546 whole entry): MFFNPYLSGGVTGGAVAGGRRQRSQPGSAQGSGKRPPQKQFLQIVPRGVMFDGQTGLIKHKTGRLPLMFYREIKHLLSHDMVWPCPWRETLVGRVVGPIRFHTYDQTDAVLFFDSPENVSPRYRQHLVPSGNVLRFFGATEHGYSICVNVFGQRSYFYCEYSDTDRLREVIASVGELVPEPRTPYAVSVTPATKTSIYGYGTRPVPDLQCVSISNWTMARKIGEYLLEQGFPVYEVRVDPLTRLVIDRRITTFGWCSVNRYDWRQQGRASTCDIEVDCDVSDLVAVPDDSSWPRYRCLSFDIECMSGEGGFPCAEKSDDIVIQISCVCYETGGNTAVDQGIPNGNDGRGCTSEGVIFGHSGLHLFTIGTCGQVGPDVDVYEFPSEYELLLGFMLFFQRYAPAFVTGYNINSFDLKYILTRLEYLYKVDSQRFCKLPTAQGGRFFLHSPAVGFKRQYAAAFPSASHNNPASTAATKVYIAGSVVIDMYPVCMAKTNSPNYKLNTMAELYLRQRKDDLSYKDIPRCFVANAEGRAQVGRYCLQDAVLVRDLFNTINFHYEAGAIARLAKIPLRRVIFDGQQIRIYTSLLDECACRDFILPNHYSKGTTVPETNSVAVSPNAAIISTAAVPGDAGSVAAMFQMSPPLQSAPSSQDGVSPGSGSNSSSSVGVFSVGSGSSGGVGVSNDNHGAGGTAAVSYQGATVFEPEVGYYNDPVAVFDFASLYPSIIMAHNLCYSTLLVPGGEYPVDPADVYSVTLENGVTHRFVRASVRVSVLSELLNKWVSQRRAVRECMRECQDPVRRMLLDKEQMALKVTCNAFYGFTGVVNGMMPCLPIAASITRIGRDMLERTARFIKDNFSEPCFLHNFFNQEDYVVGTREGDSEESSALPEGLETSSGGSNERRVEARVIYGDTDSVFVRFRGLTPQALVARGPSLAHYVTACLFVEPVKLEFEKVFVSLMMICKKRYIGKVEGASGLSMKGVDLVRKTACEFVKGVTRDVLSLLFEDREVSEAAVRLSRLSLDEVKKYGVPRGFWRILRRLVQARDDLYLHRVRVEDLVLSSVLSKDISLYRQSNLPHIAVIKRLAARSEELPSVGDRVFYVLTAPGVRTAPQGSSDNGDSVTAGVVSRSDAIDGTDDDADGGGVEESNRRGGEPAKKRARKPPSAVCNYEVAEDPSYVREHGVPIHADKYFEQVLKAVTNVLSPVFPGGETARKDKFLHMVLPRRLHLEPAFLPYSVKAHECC
Chain of HSV polymerase (P04293 whole entry): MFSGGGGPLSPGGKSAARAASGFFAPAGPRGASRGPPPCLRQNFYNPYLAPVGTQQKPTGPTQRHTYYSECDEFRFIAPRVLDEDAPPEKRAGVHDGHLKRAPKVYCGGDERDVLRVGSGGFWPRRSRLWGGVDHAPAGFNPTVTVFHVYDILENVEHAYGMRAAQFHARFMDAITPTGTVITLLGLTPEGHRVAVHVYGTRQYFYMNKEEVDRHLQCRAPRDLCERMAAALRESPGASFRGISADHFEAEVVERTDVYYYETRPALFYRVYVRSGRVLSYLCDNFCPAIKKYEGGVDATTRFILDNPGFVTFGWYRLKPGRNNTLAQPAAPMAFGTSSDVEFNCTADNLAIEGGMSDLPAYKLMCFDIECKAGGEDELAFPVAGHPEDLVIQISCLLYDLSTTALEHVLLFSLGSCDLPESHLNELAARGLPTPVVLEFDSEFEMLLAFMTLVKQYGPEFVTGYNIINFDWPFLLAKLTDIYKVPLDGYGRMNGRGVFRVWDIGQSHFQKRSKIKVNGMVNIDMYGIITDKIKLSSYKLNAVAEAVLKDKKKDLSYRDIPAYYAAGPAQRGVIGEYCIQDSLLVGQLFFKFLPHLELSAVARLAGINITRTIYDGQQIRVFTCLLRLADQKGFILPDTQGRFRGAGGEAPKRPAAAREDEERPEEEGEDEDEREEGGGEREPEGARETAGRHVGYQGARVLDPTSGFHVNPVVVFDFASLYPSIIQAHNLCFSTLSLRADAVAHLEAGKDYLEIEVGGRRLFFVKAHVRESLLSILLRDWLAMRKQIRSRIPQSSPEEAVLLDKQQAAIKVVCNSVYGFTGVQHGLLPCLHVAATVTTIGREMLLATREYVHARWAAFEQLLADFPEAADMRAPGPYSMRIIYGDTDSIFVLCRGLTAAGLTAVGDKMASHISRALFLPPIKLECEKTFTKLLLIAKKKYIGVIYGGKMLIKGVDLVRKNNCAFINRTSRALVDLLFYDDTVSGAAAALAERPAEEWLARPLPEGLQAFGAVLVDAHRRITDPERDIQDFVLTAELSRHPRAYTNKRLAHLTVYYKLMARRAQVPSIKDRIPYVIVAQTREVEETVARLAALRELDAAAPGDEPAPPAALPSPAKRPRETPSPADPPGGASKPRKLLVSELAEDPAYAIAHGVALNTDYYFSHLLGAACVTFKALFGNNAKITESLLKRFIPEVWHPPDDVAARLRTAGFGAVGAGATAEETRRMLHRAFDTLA

Structure (SMILES)	IC50 (HSV polymerase)	IC50 (HCMV polymerase)	IC50 (VZV polymerase)
O=C(NCc1ccc(Cl)cc1)c1cnc2c(F)cc(C#CCO)cc2c1O [Example 53, N-[(4-Chlorophenyl)methyl]-8-fluoro-4-hydroxy-6-(3-hydroxy-1-propynyl)-3-quinolinecarboxamide]	640 nM	< 780 nM	390 nM
O=C(NCc1ccc(Cl)cc1)c1cnc2c(F)cc(-c3cccs3)cc2c1O [Example 75, N-[(4-Chlorophenyl)methyl]-8-fluoro-4-hydroxy-6-(2-thiophenyl)-3-quinolinecarboxamide]	430 nM	170 nM	160 nM
COc1cc(C#CCO)cc2c(O)c(C(=O)NCc3ccc(Cl)cc3)cnc12 [Example 118, N-(4-Chlorobenzyl)-4-hydroxy-6-(3-hydroxy-1-propynyl)-8-methoxy-3-quinolinecarboxamide]	660 nM	670 nM	200 nM
COCC#Cc1cc(OC)c2ncc(C(=O)NCc3ccc(Cl)cc3)c(O)c2c1 [Example 119, N-(4-Chlorobenzyl)-4-hydroxy-8-methoxy-6-(3-methoxy-1-propynyl)-3-quinolinecarboxamide]	730 nM	1500 nM	570 nM
O=C(NCc1ccc(Cl)cc1)c1cnc2c(OCCO)cc(CCCO)cc2c1O [Example 124, N-(4-Chlorobenzyl)-4-hydroxy-8-(2-hydroxyethoxy)-6-(3-hydroxypropyl)-3-quinolinecarboxamide]	600 nM	250 nM	390 nM
N#C/C=C/c1cc(F)c2ncc(C(=O)NCc3ccc(Cl)cc3)c(O)c2c1 [Example 133, N-(4-Chlorobenzyl)-6-[(E)-2-cyanoethenyl]-8-fluoro-4-hydroxy-3-quinolinecarboxamide]	3200 nM	4000 nM	2200 nM
O=C(NCc1ccc(Cl)cc1)c1c[nH]c2ccc(/C=C/CO)cc2c1=O [Example 136, N-[(4-Chlorophenyl)methyl]-1,4-dihydro-6-[(1E)-3-hydroxy-1-propenyl]-4-oxo-3-quinolinecarboxamide]	700 nM	680 nM	390 nM
N#CCCc1cc(F)c2ncc(C(=O)NCc3ccc(Cl)cc3)c(O)c2c1 [Example 138, N-(4-Chlorobenzyl)-6-(2-cyanoethyl)-8-fluoro-4-hydroxy-3-quinolinecarboxamide]	3500 nM	4700 nM	2000 nM
CS(=O)(=O)OCCCc1cc(F)c2ncc(C(=O)NCc3ccc(Cl)cc3)c(O)c2c1 [Example 142, 3-(3-([(4-Chlorobenzyl)amino]carbonyl}-8-fluoro-4-hydroxy-6-quinolinyl)propyl methanesulfonate]	2900 nM	3800 nM	2100 nM
O=C(CBr)OCCCc1cc(F)c2ncc(C(=O)NCc3ccc(Cl)cc3)c(O)c2c1 [Example 145, 3-(3-{[(4-Chlorobenzyl)amino]carbonyl}-8-fluoro-4-hydroxy-6-quinolinyl)propyl 2-bromoacetate]	3500 nM	2900 nM	2500 nM
CN(C)CC(=O)OCCCc1cc(F)c2ncc(C(=O)NCc3ccc(Cl)cc3)c(O)c2c1 [Example 148, 3-(3-{[(4-Chlorobenzyl)amino]carbonyl}-8-fluoro-4-hydroxy-6-quinolinyl)propyl 2-(dimethylamino)acetate]	1400 nM	2400 nM	1000 nM
O=C(NCc1ccc(Cl)cc1)c1cnc2c(F)cc(F)c(F)c2c1O [Example 168, N-[(4-Chlorophenyl)methyl]-5,6,8-trifluoro-4-hydroxy-3-quinolinecarboxamide]	8400 nM	10000 nM	4100 nM

Now from value to compound:

IC50 (HSV polymerase)	IC50 (HCMV polymerase)	IC50 (VZV polymerase)	Structure (SMILES)
> 100000 nM	22000 nM	53800 nM	O=C(NCc1ccc(Cl)cc1)c1cnc2cc(-n3cccc3)ccc2c1O [Example 32, N-[(4-Chlorophenyl)methyl]-4-hydroxy-7-(1-pyrrolyl)-3-quinolinecarboxamide]
200 nM	140 nM	90 nM	O=C(NCc1ccc(Cl)cc1)c1cnc2c(F)cc(CCCCO)cc2c1O [Example 99, N-(4-Chlorobenzyl)-8-fluoro-4-hydroxy-6-(4-hydroxybutyl)-3-quinolinecarboxamide]
16400 nM	10300 nM	9600 nM	CC(C)(O)CCc1cc(F)c2ncc(C(=O)NCc3ccc(Cl)cc3)c(O)c2c1 [Example 106, N-(4-Chlorobenzyl)-8-fluoro-4-hydroxy-6-(3-hydroxy-3-methylbutyl)-3-quinolinecarboxamide]
250 nM	270 nM	80 nM	COc1cc(CCCO)cc2c(O)c(C(=O)NCc3ccc(Cl)cc3)cnc12 [Example 120, N-(4-Chlorobenzyl)-4-hydroxy-6-(3-hydroxypropyl)-8-methoxy-3-quinolinecarboxamide]
2500 nM	870 nM	1700 nM	CC(C)(CCO)c1ccc2ncc(C(=O)NCc3ccc(Cl)cc3)c(O)c2c1 [Example 125, N-(4-Chlorobenzyl)-4-hydroxy-6-(3-hydroxy-1,1-dimethylpropyl)-3-quinolinecarboxamide]
720 nM	900 nM	190 nM	O=C(NCc1ccc(Cl)cc1)c1cnc2ccc(C#CCO)cc2c1O [Example 134, N-(4-Chlorobenzyl)-4-hydroxy-6-(3-hydroxy-1-propynyl)-3-quinolinecarboxamide]
1700 nM	1400 nM	1000 nM	O=C(NCc1ccc(Cl)cc1)c1cnc2cc(CCCCO)ccc2c1O [Example 140, N-(4-Chlorobenzyl)-4-hydroxy-7-(4-hydroxybutyl)-3-quinolinecarboxamide]
280 nM	280 nM	70 nM	O=C(NCc1ccc(Cl)cc1)c1cnc2ccc(CCCO)cc2c1O [Example 144, N-(4-Chlorobenzyl)-4-hydroxy-6-(3-hydroxypropyl)-3-quinolinecarboxamide]
1800 nM	920 nM	890 nM	CC(O)CCc1ccc2ncc(C(=O)NCc3ccc(Cl)cc3)c(O)c2c1 (stereo not drawn) [Example 157, N-(4-Chlorobenzyl)-4-hydroxy-6-(3-hydroxybutyl)-3-quinolinecarboxamide]
800 nM	150 nM	640 nM	O=C(NCc1ccc(Cl)cc1)c1cnc2ccc(-c3cccs3)cc2c1O [Example 178, N-(4-Chlorobenzyl)-4-hydroxy-6-(2-thienyl)-3-quinolinecarboxamide]
1400 nM	1800 nM	660 nM	O=C(NCc1ccc(Cl)cc1)c1cnc2ccc(OCCO)cc2c1O [Example 179, N-(4-Chlorobenzyl)-4-hydroxy-6-(2-hydroxyethoxy)-3-quinolinecarboxamide]
630 nM	500 nM	640 nM	O=C(NCc1ccc(Cl)cc1)c1cnc2ccc(CN3CCOCC3)cc2c1O [Example 191, N-(4-Chlorobenzyl)-4-hydroxy-6-(4-morpholinylmethyl)-3-quinolinecarboxamide]
